pIC50: −log10 of the molar value. Values joined by “and” are separate entries in the source; they are usually repeats but may differ in a detail not shown here. Identical values can stand only once.
Columns and labels:
[1] = test system: MDA-MB-231; assay: In vitro cytotoxicity (MTT) assay; assay type: cell-based, human
Description: (§1) The effect of andrographolide on cell viability was measured by MTT assay following the method by Mosmann. Briefly, the cells (1 × 10^5 cells per ml) were seeded in a 96 well micro titer plate (100 μl per well) with replications. Treatment was conducted for 24 and 48 h with different concentrations (0, 5, 7.5, 15, 30, 45, 60, 75 and 100 μM) of andrographolide. After incubation, 20 μl of 5 mg/ml MTT stock solution was added to each well and incubated for 4 h at 37 °C. The obtained formazan crystals were solubilized with DMSO and the absorbance was measured at 570 nm using a microplate reader (SpectraMax M5, Molecular Devices, USA). Cell viability (%) has been shown as a ratio of absorbance (A570) in treated cells to absorbance in control cells (0.1 % DMSO) (A570). The IC50 was calculated as the concentration of sample needed to reduce 50 % of the absorbance in comparison to the DMSO-treated control. Percent cell viability was calculated following the equation: Cellviability%=A570Sample/A570ControlDMSO×100

[2] = test system: MCF-10A normal human breast epithelial immortalized cell line; assay: In vitro cytotoxicity (MTT) assay; assay type: cell-based; conditions: for pIC50: Homo sapiens, MCF-10A, MTT
Description: as §1

[3] = test system: MCF-7; assay: In vitro cytotoxicity (MTT) assay; assay type: cell-based; conditions: Homo sapiens
Description: as §1

[4] = test system: T-47D; assay: In vitro cytotoxicity (MTT) assay; assay type: cell-based; conditions: Homo sapiens, T47D
Description: as §1

[5] = test system: MCF-7 cells; assay: Annexin V-FITC/PI flow cytometry (apoptosis); assay type: cell-based, human; conditions: MCF-7, IC50 concentration, 48 h
Description: (§2) In order to examine phosphatidyl serine externalization from inner to the outer cell membrane, a characteristic feature of apoptotic cell death and to quantify the percentage of apoptotic cell death, cultured MDA-MB-231 cells (1 × 10^6) were treated with 50 % inhibitory concentration (30 μM) of andrographolide for 24 h, 36 h and 48 h. Cells were resuspended in 1X binding buffer, labelled with fluorescein isothiocyanate (FITC)-conjugated Annexin V (200 μg/ml) and PI (30 μg/ml), incubated for 15 min at room temperature in the dark and analyzed by flow cytometry using BD FACSVerse™ (Becton Dickinson, USA). Data were analyzed using FACSuite™ software. For each set, total of 10,000 events were recorded. Similar experiment was also performed using MCF-7 cells treated with andrographolide for 48 h.

[6] = test system: MDA-MB-231 cells; assay: Annexin V-FITC/PI flow cytometry (apoptosis); assay type: cell-based, human; conditions: 30 μM
Description: as §2

[7] = test system: Apaf-1; assay: Western blot, protein expression in MDA-MB-231 cells; assay type: cell-based, human; conditions: 30 μM, 48 h
Description: (§3) Cells from control regime and andrographolide treatment (30 μM, 48 h) were used for Western blot. After centrifugation, cell pellets were lysed in RIPA buffer containing protease and phosphatase inhibitors (Roche, Germany). Each cell lysate was used for protein assay with Bio-Rad protein assay kit (Bio-Rad, USA). A protein sample of 50 μg was electrophoresed in a 12 % SDS-PAGE. Proteins were electro-transferred from the gel onto a nitrocellulose membrane (Amersham Biosciences, UK). After incubating with blocking buffer containing 5 % nonfat milk for 1 h, the membranes were probed with the primary antibody specific for Bcl-xL (1:750 dilution), Bcl-2 (1:1000), Bax (1:1000), cytochrome c (1:800) and Apaf-1 (1:500) at 4 °C. Membrane was then washed thrice with TBST (Tris buffered saline having 0.1 % Tween-20, pH 7.5), exposed to horseradish peroxidase conjugated secondary antibody (1:2500) and was then kept at 25 °C for 1 h. The membrane was then finally washed thrice with TBST. The protein bands were visualized by incubating the membrane with diaminobenzidine/hydrogen peroxide (Sigma-Aldrich) for color reaction. β-Actin and COX IV were also detected as loading controls.

[8] = test system: Bax; assay: as above; assay type: cell-based, human; conditions: 30 μM, 48 h
Description: as §3

[9] = test system: Bcl-2; assay: as above; assay type: cell-based, human; conditions: 30 μM, 48 h
Description: as §3

[10] = test system: Bcl-xL; assay: as above; assay type: cell-based, human; conditions: 30 μM, 48 h
Description: as §3

[11] = test system: caspase-3; assay: Caspase activity assay (fluorometric, DEVD-AFC) in MDA-MB-231 cells; assay type: cell-based, human; conditions: 0-60 μM, 24 h
Description: (§4) MDA-MB-231 cells (1 × 10^5 cells per ml) were incubated with different concentrations of andrographolide (0, 15, 30, 45 and 60 μM) for 24 h and then centrifuged to detect caspase-3 and caspase-9 activation using caspase fluoremetric protease assay kit following manufacturer’s instructions. Briefly, cells were lysed in RIPA buffer supplemented with protease inhibitor cocktail and 10 μl lysate were diluted with 10 μl substrate buffer (1:1) containing 100 μM each of fluorogenic substrate, DEVD-AFC and LEHD-AFC for caspase-3 and caspase-9 respectively, and was then incubated for 90 min at 37 °C. Reactions were stopped using 0.2 mM sodium phosphate buffer (pH 7.5) and fluorescence was quantified by a spectrofluorometer (excitation, 405 nm; emission, 505 nm). Experiment was also performed using MCF-7 cells.

[12] = test system: caspase-9; assay: Caspase activity assay in MCF-7 cells; assay type: cell-based, human; conditions: MCF-7, 0-80 μM, 24 h
Description: as §4

[13] = test system: caspase-7; assay: Caspase activity assay in MCF-7 cells; assay type: cell-based, human; conditions: MCF-7, 0-80 μM, 24 h

`C=C1CC[C@@H]2[C@](C)(CO)[C@H](O)CC[C@@]2(C)[C@@H]1C/C=C1/C(=O)OC[C@H]1O` [andrographolide] gave a pIC50 ([1]; Homo sapiens, MDA-MB-231, 24 h) of 4.28, a pIC50 ([1]; Homo sapiens, MDA-MB-231, 48 h) of 4.52 and a pIC50 ([1]; MDA-MB-231, 48 h) of 4.52. The “IC50 at 48 h for MCF-10A higher than that for MDA-MB-231 cells” value ([2]; 48 h, MCF-10A vs MDA-MB-231) was ~3.5 fold, the pIC50 ([2]; 24 h) was 3.86 and the pIC50 ([2]; 48 h) was 3.97. For the same compound, the “treatment did not affect normal breast epithelial cells, MCF-10A” value ([2]; abstract, quantity not named (presumably viability)) was > 80%, the pIC50 ([3]; MCF7, MCF-7, 24 h) was 4.21 and the pIC50 ([3]; MCF7, MCF-7, 48 h) was 4.43. The pIC50 ([4]; 24 h) was 3.93, the pIC50 ([4]; 48 h) was 4.14 and the “percentage of apoptotic cells” value [5] was 41.17%. For the same compound, the “early apoptotic cells (annexin V+ and PI-)” value (shortened to “early apoptotic cells”) ([6]; 24 h) was 16.76 ± 0.51%, the “late apoptotic cells (annexin V+ and PI+)” value ([6]; 24 h) was 32.2 ± 2.2% and 32% and the “early apoptotic cells” value ([6]; 36 h) was 12.23 ± 0.29%. The “late apoptotic cells (annexin V+ and PI+)” value ([6]; 36 h) was 60.06 ± 0.6%, the “early apoptotic cells” value ([6]; 48 h) was 5.89 ± 0.67% and the “cell population in necrotic phase” value ([6]; all the treated conditions (24, 36, 48 h)) was < 1%. The “Apaf-1 expression, increase” value [7] was 1.49 ± 0.17 fold, the “Bax expression, up-regulated” value [8] was 2.39 ± 0.45 fold and the “Bcl-2 expression, down regulated” value [9] was 1.96 ± 0.14 fold. The “Bcl-xL expression, down-regulated compared to control” value [10] was 1.47 ± 0.06 fold, the “activation of caspase-3” value [11] was “gradual dose-dependent activation” and the “caspase-9 (initiator caspase) activation” value [12] was “activation in a dose-dependent manner”. The “caspase-7 (effector caspase) activation” value [13] was “activation in a dose-dependent manner”.

— PMC4833932, “Cytotoxicity and cell cycle arrest induced by andrographolide lead to programmed cell death of MDA-MB-231 breast cancer cell line” (Journal of Biomedical Science, 2016)
